pIC50: −log10 of the molar value.
Legend:
αv integrin [1] = experiment: Cell adhesion assay: RAEC adhesion to vitronectin coated plates; assay type: cell-based; conditions: rabbit aortic endothelial cells, 1.5 h at 37° C., read-out: IC50 to block adhesion of RAEC to vitronectin
Experimental: (§1) The ability of compounds to block adhesion of three primary cell cultures: human dermal microvascular endothelial (HMVEC), rat lung microvascular endothelial (RLMVEC), and rabbit aortic endothelial (RAEC) cells, to vitronectin coated plates was determined using the following procedure.
(§2) Adhesion plates preparation. 96-well plates were coated with vitronectin in PBS, pH 7.4 by incubating 50 μL of the solution (10 μg/ml) for 1.5 h at room temperature or overnight at 4° C. The plates then were blocked with 1% BSA in PBS (30 min at room temperature) and washed with PBS.
(§3) Cell culturing and loading. HMVEC cells (passages (p)9-14) (from Lonza, Allendale, NJ) RLMVEC cells (p4-14) (from Vec Technology, Rensselaer, NY) and RAEC cells (p4-14) (from CellBiologics, Chicago, IL) were used for the compound testing. Cells were grown in T175 tissue culture flasks and dislodged by gentle 3 min treatment with Accutase (Life Technologies). After washing, the cells in suspension in RPMI-1640 (Life Technologies) were loaded with calcein-AM (5 μM) (Life Technologies) for 30 min at 37° C. and re-suspended into RPMI w/o phenol red medium containing 10% FBS.
(§4) Adhesion assay. The cell suspension was aliquoted into the wells at a density of 1.0×10^5 cells/well (RLMVEC) and 5.0×10^4 (HMVEC, and RAEC). The test compounds are added at the same time with the cells. The plates are incubated for 1.5 h at 37° C. […] The wash was performed by 2 cycles of aspiration of the supernatant and addition of 100 μL of the pre-warmed fresh DPBS (Life Technologies). A fluorescence of the remaining cells is measured using multimode plate reader (Victor 2V, PerkinElmer) at an excitation/emission wavelengths of 485/535 nm. The compounds were tested starting with maximal concentration of 1 μM with half-log dilution schedule. IC50 values were calculated with Prism 5 (GraphPad, CA) by fixing the bottom of the curves to a value of blank for empty wells fluorescence.

αv integrin [2] = biological target: T1, αv integrin (Homo sapiens, UniProt P06756); experiment: Cell adhesion assay: HMVEC adhesion to vitronectin coated plates; assay type: cell-based; conditions: human dermal microvascular endothelial cells, 1.5 h at 37° C., read-out: IC50 to block adhesion of HMVEC to vitronectin
T1 construct: three primary cell cultures; host or cells: HMVEC primary human dermal microvascular endothelial cells, passages 9-14
T1 sequence (P06756 31-1048): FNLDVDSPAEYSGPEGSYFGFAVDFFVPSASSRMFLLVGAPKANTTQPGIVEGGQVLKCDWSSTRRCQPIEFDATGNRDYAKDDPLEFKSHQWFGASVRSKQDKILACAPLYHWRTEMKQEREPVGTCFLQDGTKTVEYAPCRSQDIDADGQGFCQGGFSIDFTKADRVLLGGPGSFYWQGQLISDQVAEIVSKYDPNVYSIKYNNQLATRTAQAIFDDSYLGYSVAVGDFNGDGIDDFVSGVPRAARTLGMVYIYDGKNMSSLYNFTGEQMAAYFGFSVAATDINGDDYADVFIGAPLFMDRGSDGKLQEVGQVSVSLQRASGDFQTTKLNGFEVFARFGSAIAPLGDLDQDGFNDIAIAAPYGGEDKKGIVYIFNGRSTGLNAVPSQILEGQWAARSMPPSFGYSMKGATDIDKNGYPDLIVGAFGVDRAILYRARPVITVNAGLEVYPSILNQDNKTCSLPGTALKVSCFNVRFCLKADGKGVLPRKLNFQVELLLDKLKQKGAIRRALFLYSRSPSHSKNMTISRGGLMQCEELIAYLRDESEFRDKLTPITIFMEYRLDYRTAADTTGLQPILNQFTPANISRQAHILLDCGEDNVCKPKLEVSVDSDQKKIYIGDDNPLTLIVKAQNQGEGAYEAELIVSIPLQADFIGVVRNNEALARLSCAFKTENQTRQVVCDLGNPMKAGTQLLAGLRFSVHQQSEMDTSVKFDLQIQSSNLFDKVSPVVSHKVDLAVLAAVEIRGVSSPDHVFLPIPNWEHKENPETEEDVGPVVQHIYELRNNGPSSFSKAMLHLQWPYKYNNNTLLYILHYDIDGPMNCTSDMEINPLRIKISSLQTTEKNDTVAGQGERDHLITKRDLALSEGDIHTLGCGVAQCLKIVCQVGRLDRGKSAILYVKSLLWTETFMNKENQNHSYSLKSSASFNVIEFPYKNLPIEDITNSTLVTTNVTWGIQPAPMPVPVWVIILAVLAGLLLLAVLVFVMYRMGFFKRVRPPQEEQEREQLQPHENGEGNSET
Experimental: as §1, §2, §3, §4

αv integrin [3] = experiment: Cell adhesion assay: RLMVEC adhesion to vitronectin coated plates; assay type: cell-based; conditions: rat lung microvascular endothelial cells, 1.5 h at 37° C., read-out: IC50 to block adhesion of RLMVEC to vitronectin
Experimental: as §1, §2, §3, §4

[4] = Distribution in plasma, aqueous humor, vitreous humor and retina after topical ocular administration; assay type: in vivo, Dutch Belted rabbits; conditions: 50 μL/eye, 1.0-2.5 mg/mL, 0.5 or 1.0 and 8 hours, FIGS. 2, 3, 4
Experimental: The plasma concentrations and ocular distribution (aqueous humor, vitreous humor, and retina) of Compounds A1, A2, and A3 were determined following topical ocular administration in Dutch Belted rabbits. […] Aqueous humor, vitreous humor, and retina were collected from each eye at each time point post-dose. Also, weights were recorded. Plasma and ocular sample concentrations of the compounds were determined by LC-MS/MS.
Animal Dosing: The exposure of compounds A1, A2, and A3 was evaluated in Dutch Belted rabbits. The study was not blinded. Each compound was dosed as n=3/time point for a total of nine rabbits. Rabbits were housed one per cage. Animals were not fasted, and food and water were supplied ad libitum.
Animals were anesthetized following the 13IA5 IACUC protocol for the dosing. Each rabbit received a bolus dose of test formulation via topical ocular administration into both eyes at time zero on the day of dosing. Plasma and ocular samples were collected at pre-determined time points. Animals for the 30-minute and 1-hour time points were anesthetized for the entire duration of the study. The animals for the 8-hour time point were recovered after dosing and then euthanized for sampling purposes.
At each time point, approximately 0.5 mL of blood was collected and placed into chilled Na-heparin tubes containing citric acid. Blood samples were centrifuged at a speed of 3,000 g for 5 minutes to obtain plasma as quickly as possible. Samples were stored frozen at −80° C. until analysis. Animals were euthanized per the 13IA5 IACUC protocol and both eyes were enucleated immediately. Following enucleation, each eye was rinsed with PBS. Ocular samples from both eyes of each animal were collected and weights were recorded. All the samples were frozen immediately on dry ice, and stored at −60 to −80° C. for analysis.
Analysis of Plasma and Ocular Samples: An LC-MS/MS method was developed for the determination of Compounds A1, A2, and A3 in rabbit plasma and ocular samples.

[5] = system: chick chorioallantoic membrane (CAM); experiment: Chick chorioallantoic membrane (CAM) anti-angiogenic assay; assay type: in vivo; conditions: gelatin sponge graft with test compound and 50 ng VEGF; FIG. 1
Experimental: CAM surfaces were grafted with gelatin sponges impregnated with the concentrations of test compounds and 50 ng VEGF dissolved in PBS. Untreated CAM received only VEGF and PBS. Error bars represent SEM, N=5, P values for the treated groups were calculated by comparing with the untreated group (*p<0.05, **p<0.01, ***p<0.001). Test Substance Preparation: Test samples and standards were dissolved in PBS and sterilized by passing through a syringe filter (0.22 μm). hVEGF(SIGMA) 50 ng/μl was prepared in sterile PBS. Grafting: Gelatin sponge (Abogel) was cut in approximately 2 mm^3 pieces and loaded with required test substance or PBS and VEGF. The graft was placed on the CAM. Eggs: Fertile hen eggs were procured from a hatchery and were cleaned and decontaminated using alcohol. 1 ml of albumin was removed using a syringe and incubated for 8 days. Grafts were placed on developing CAMs and further incubated to day 12. On day 12, CAMs were fixed with 4% formaldehyde in PBS, dissected and imaged. Imaging: Fixed CAMs were imaged under constant illumination and magnification under a stereomicroscope fitted with a digital camera (CANON). Image analysis: Images were analyzed on MS PowerPoint keeping the image size constant. A ring was drawn around the graft and the size was kept constant. Blood vessels crossing the ring were counted for each test group.

[6] = system: laser-induced choroidal neovascularization; experiment: Laser-induced choroidal neovascularization (CNV) model; assay type: in vivo, Dutch Belted rabbits; conditions: twice daily topical administration, 50 μL; fluorescein angiography day 35; FIG. 5
Experimental: Healthy male animals weighing between 1.5 and 2.0 kg were used in these studies. Animals were weighed prior to dosing and at euthanasia, and more often if needed. Baseline fundus photography and fluorescein angiography was performed on each animal prior to CNV induction.
Animals were anesthetized with an intramuscular injection of ketamine hydrochloride (20 mg/kg) and xylazine (2 mg/kg) for CNV induction, fundus photography, fluorescein angiography, and intravitreal (IVT) injections. Rabbits were maintained on isoflurane (approximatelyl to 3%) in oxygen (approximately 1 to 2 L/min) as necessary. One drop of topical proparacaine hydrochloride anesthetic (0.5%) was placed in each eye before procedures. Additional topical ocular anesthesia was utilized during the procedure if needed.
CNV was induced by laser photocoagulation treatment. […]
Clinical ophthalmic exams (slit-lamp biomicroscopy and indirect ophthalmoscopy), fundus photography, and fluorescein angiography were performed at baseline and then weekly for up to 6 weeks post-induction. Exams were scored using the McDonald-Shadduck Score System. […]
At the conclusion of the study, animals were euthanized per the 13C232Q3 IACUC protocol and both eyes enucleated immediately. […] Ocular samples (aqueous humor, vitreous humor retina and choroid) from both eyes of each animal were collected and weights were recorded. […]

SMILES | pIC50 (αv integrin [1]) | pIC50 (αv integrin [2]) | pIC50 (αv integrin [3]) | distribution to the retina [4] | anti-angiogenic activity: number of blood vessels vs untreated control [5] | reduction of laser-induced choroidal neovascularization vs vehicle control [6]
O=C(O)CC(CCCCCCc1ccc2c(n1)NCCC2)c1ccc(OC(F)F)nc1 (stereo not shown) [Compound A3, 3-(6-(difluoromethoxy)pyridin-3-yl)-9-(5,6,7,8-tetrahydro-1,8-naphthyridin-2-yl)nonanoic Acid] | 7.23 | 6.21 | 6.64 | efficiently distributed to the retina | – | –
O=C(O)CC(CCCCCCc1ccc2c(n1)NCCC2)c1cnc2cc(C(F)(F)F)ccc2c1 (stereo not shown) [Compound A7, 9-(5,6,7,8-tetrahydro-1,8-naphthyridin-2-yl)-3-(7-(trifluoromethyl)quinolin-3-yl)nonanoic Acid] | 6.68 | 6.89 | 6.40 | – | – | –
O=C(O)CC(CCCCCCc1ccc2c(n1)NCCC2)c1cnc(C(F)(F)F)nc1 (stereo not shown) [Compound A2, 9-(5,6,7,8-tetrahydro-1,8-naphthyridin-2-yl)-3-(2-(trifluoromethyl)pyrimidin-5-yl)nonanoic Acid] | 7.80 | 6.80 | 7.17 | efficiently distributed to the retina | significantly decreases the number of blood vessels | effectively reduced laser-induced choroidal neovascularization
O=C(O)C[C@@H](c1ccc(OC(F)F)nc1)N1CCN(CCCc2ccc3c(n2)NCCC3)C1=O [Compound A1, (S)-3-(6-(difluoromethoxy)pyridin-3-yl)-3-(2-oxo-3-(3-(5,6,7,8-tetrahydro-1,8-naphthyridin-2-yl)propyl)imidazolidin-1-yl)propanoic acid] | 8.08 | 8.03 | 7.51 | efficiently distributed to the retina | significantly decreases the number of blood vessels | effectively reduced laser-induced choroidal neovascularization

Second part, led by results:

pIC50 (αv integrin [1]) | pIC50 (αv integrin [2]) | pIC50 (αv integrin [3]) | distribution to the retina [4] | SMILES | anti-angiogenic activity: number of blood vessels vs untreated control [5] | reduction of laser-induced choroidal neovascularization vs vehicle control [6]
7.36 | 7.36 | 8.26 | – | O=C(O)CC(CCCCCCc1ccc2c(n1)NCCC2)c1cnc2cc(F)c(F)cc2c1 (stereo not shown) [Compound A6, 3-(6,7-difluoroquinolin-3-yl)-9-(5,6,7,8-tetrahydro-1,8-naphthyridin-2-yl)nonanoic Acid] | – | –
8.07 | 7.38 | 7.49 | – | O=C(O)CC(CCCCCCc1ccc2c(n1)NCCC2)c1cnc2ccc(F)cc2c1 (stereo not shown) [Compound A4, 3-(6-fluoroquinolin-3-yl)-9-(5,6,7,8-tetrahydro-1,8-naphthyridin-2-yl)nonanoic Acid] | – | –
7.70 | 6.60 | 7.43 | – | O=C(O)CC(CCCCCCc1ccc2c(n1)NCCC2)c1cnc2cc(F)ccc2c1 (stereo not shown) [Compound A5, 3-(7-fluoroquinolin-3-yl)-9-(5,6,7,8-tetrahydro-1,8-naphthyridin-2-yl)nonanoic Acid] | – | –

Source: patent publication US12497399B2, “Fluorinated integrin antagonists” (OcuTerra Therapeutics, Inc., priority 2013, dated 2025)
